The assay concerns U266 multiple myeloma cells. Put plainly: MTT assay. Format: cell-based. Particulars: Homo sapiens, U-266, 72 h, read-out: U266 IC50.

Each structure is given as a SMILES string.

The IC50 is the midpoint of a concentration-inhibition curve.

With `CC[C@@H]1C(=O)N(C)c2cnc(Nc3ccc(C(=O)NC4CCN(C)CC4)cc3OC)nc2N1C1CCCC1` [BI 2536], the IC50 stood at 280 ± 30 nM.

These data come from publication PMC12486458 (Journal of Enzyme Inhibition and Medicinal Chemistry, 2025).
